From patent US20130244950A1, “COMBINATION THERAPY FOR CHEMORESISTANT CANCERS” (CELGENE CORPORATION, priority 2011, published 2013)
Read-outs that look alike come from different tables or passages of the source.

Legend:
[1] = cited from earlier work
[2] = test system: ccRCC cell lines A498 and KIJ265T and TNBC cell lines MDA231 and BT20; assay: Drug treatments and proliferation assay (cell counting, Coulter Particle Counter); assay type: cell-based, Human
Experimental: Human renal cell carcinoma cell lines A498 (ATCC, Manassas, Va.) and KIJ265T (derived from primary tumor site stage 4 human renal cell carcinoma patient tissue established in the Copland laboratory), as well as triple negative breast cancer cell lines BT-20 (ATCC) and MDA-231 (ATCC) were maintained in phenol red free DMEM medium (Cellgro, Herndon, Va.) supplemented with 10% FBS (Hyclone, Logan, Utah) and penicillin-streptomycin (Invitrogen, Carlsbad, Calif.) at 37° C. in humidified conditions with 5% CO2.
DMSO was used for vehicle control. […] Cells were trypsinized 24 hours later and counted.

[3] = test system: KIJ265T ccRCC cell line; assay: Cell death analysis via flow cytometry (propidium iodide); assay type: cell-based, Human; settings: 5 nM romidepsin and/or 1 μM decitabine, 72 hour treatment
Experimental: Cells were treated with the optimal combinatorial therapy and appropriate control groups were prepared. After 72 hour treatment both adhered and floating cells were collected, centrifuged at 4° C., and washed using DPBS. Cells were centrifuged and re-suspended in 1× cold binding buffer (BD Pharmingen, San Jose, Calif.) at a concentration of 1×10^6 cells per ml. Cells were stained for 10 minutes with propidium iodide (BD Pharmingen), and FACS analysis was performed using Accuri C6 flow cytometer (Accuri, Ann Arbor, Mich.). Unstained cells were used as controls for setting the cell population parameters.

[4] = test system: BT20 cell line; assay: as above; assay type: cell-based, Human; settings: 5 nM romidepsin and/or 1 μM decitabine, 72 hour treatment
[5] = test system: MDA231 and KIJ265T cells; assay: Proliferation of cells treated with recombinant human sFRP1; assay type: cell-based; settings: escalating doses of recombinant sFRP1 in the media, 72 hours
Experimental: For the treatment of cells with recombinant human sFRP1, MDA231 and KIJ265T cells were seeded in a 96-well culture plate at 5000 cells per well in 100 μl DMEM supplemented with PSA and 10% FBS. After overnight incubation, cells were washed in PBS and 100 μl of serum free DMEM containing the final concentration of sFRP1 was added. The cells were incubated for 6 hours Serum was re-introduced to these wells to a final concentration of 2% FBS. Plates were incubated for 72 hours before cells were trypsinized and counted.

[6] = test system: PARP cleavage in KIJ265T and MDA-231 parent cell lines; assay: PARP cleavage after recombinant human sFRP1; assay type: cell-based; settings: single dose of 1.4 nM sFRP1

In the case of Nc1ncn([C@@H]2O[C@H](CO)[C@@H](O)[C@H]2O)c(=O)n1 [azacitidine, 4-amino-1-β-D-ribofuranozyl-s-triazin-2(1H)-one], the solubility ([1]; acetone, ethanol and methyl ketone) is given as “insoluble”, the solubility ([1]; dimethylsulfoxide (DMSO)) is given as “soluble” and the solubility ([1]; ethanol/water (50/50), propylene glycol and polyethylene glycol) is given as “slightly soluble”. The solubility ([1]; water, water-saturated octanol, 5% dextrose in water, N-methyl-2-pyrrolidone, normal saline and 5% Tween 80 in water) was “sparingly soluble”.

For Nc1ncn([C@H]2C[C@H](O)[C@@H](CO)O2)c(=O)n1 [decitabine, 4-amino-1-(2-deoxy-β-D-erythro-pentofuranosyl)-1,3,5-triazin-2(1H)one], the “effect on cell proliferation” value ([2]; decitabine alone, all tested doses (0.01 μM to 10 μM), 72 hours post drug exposure) is listed as “minimal effect on cell proliferation”, the “cell death induced above DMSO treated controls” value [3] is listed as 6.3% and the solubility ([1]; dimethylsulfoxide (DMSO)) is listed as “soluble”. The solubility ([1]; ethanol/water (50/50), methanol/water (50/50) and methanol) was “slightly soluble” and the solubility ([1]; water) was “sparingly soluble”.

For C/C=C1\NC(=O)[C@H]2CSSCC/C=C/[C@H](CC(=O)N[C@H](C(C)C)C(=O)N2)OC(=O)[C@H](C(C)C)NC1=O [romidepsin, (1S,4S,7Z,10S,16E,21R)-7-ethylidene-4,21-bis(1-methylethyl)-2-oxa-12,13-dithia-5,8,20,23-tetrazabicyclo[8.7.6]tricos-16-ene-3,6,9,19,22-pentone], the “cell death induced compared to DMSO controls” value [4] was 5.8%, the “cell death in single treatment samples” value ([2]; 5 nM romidepsin, 3 day exposure) was roughly 50% and the “inhibition of cell proliferation” value ([2]; romidepsin alone, 2.5-100 nM dose range, 72 hours post drug exposure) was “significant inhibition of cell proliferation”.

B1: recombinant human sFRP1: recombinant human secreted frizzled related protein 1, negative regulator of Wnt signaling (protein, UniProt Q8N474 32-314, looked up)
Secreted frizzled-related …: SEYDYVSFQSDIGPYQSGRFYTKPPQCVDIPADLRLCHNVGYKKMVLPNLLEHETMAEVKQQASSWVPLLNKNCHAGTQVFLCSLFAPVCLDRPIYPCRWLCEAVRDSCEPVMQFFGFYWPEMLKCDKFPEGDVCIAMTPPNATEASKPQGTTVCPPCDNELKSEAIIEHLCASEFALRMKIKEVKKENGDKKIVPKKKKPLKLGPIKKKDLKKLVLYLKNGADCPCHQLDNLSHHFLIMGRKVKSQYLLTAIHKWDKKNKEFKNFMKKMKNHECPTFQSVFK
For B1, the cell proliferation [5] was “dose-dependent decrease” and the “induction of apoptosis (PARP cleavage)” value [6] was “induction of apoptosis as seen by PARP cleavage”.
